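Protocol summary: plate cells (96-well), add compound at 5 concentrations, incubate 48 h, interpolate endpoints linearly. At the GI50, growth is halved.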 Activity calls are given as the source filed them. Cut-off read from the data, not from the text of the source: active = GI50 up to about 1.1 µM and inactive = higher.
What was measured:
Assay in all cases: DTP human tumour cell line panel, 48 h
[1] = test system: SN12C
[2] = test system: HCT-116
[3] = test system: A549
[4] = test system: Hs-578T
[5] = test system: EKVX
[6] = test system: M14
[7] = test system: SK-MEL-5
[8] = test system: OVCAR-4
[9] = test system: SK-MEL-28
[10] = test system: HOP-92
[11] = test system: HCT-15
[12] = test system: DU-145
[13] = test system: MDA-N
[14] = test system: SK-MEL-2
[15] = test system: SK-OV-3
[16] = test system: MCF7
[17] = test system: SF-539
[18] = test system: UACC-62
[19] = test system: T47D

| Compound | GI50 [1] | GI50 [2] | GI50 [3] | GI50 [4] | GI50 [5] | GI50 [6] | GI50 [7] | GI50 [8] | GI50 [9] | GI50 [10] | GI50 [11] | GI50 [12] | GI50 [13] | GI50 [14] | GI50 [15] | GI50 [16] | GI50 [17] | GI50 [18] | GI50 [19] |
| --- | --- | --- | --- | --- | --- | --- | --- | --- | --- | --- | --- | --- | --- | --- | --- | --- | --- | --- | --- |
| O=c1c2c3c(sc2nc2n1sc1nc4sc5c(c4c(=O)n12)CCCC5)CCCC3 | > 87.1 µM (inactive) | 35.7 µM (inactive) | > 77.1 µM (inactive) | 39.6 µM (inactive) | 12 µM (inactive) | 98.2 µM (inactive) | > 100 µM (inactive) | 18.7 µM (inactive) | > 80.5 µM (inactive) | 51.2 µM (inactive) | 62.8 µM | > 44.8 µM (inactive) | > 51.3 µM (inactive) | > 100 µM (inactive) | 99.1 µM (inactive) | 23.8 µM (inactive) | 56 µM (inactive) | 10.9 µM (inactive) |  |
| COc1ccc(NCc2cccc3c(=O)c4ccc(Cl)cc4oc23)cc1 | > 100 µM (inactive) | > 100 µM (inactive) | > 100 µM (inactive) |  | > 100 µM (inactive) | > 100 µM (inactive) | > 100 µM (inactive) | > 100 µM (inactive) | > 100 µM (inactive) | 2.5 µM (inactive) | > 100 µM |  | > 100 µM (inactive) | > 100 µM (inactive) | > 100 µM (inactive) | > 100 µM (inactive) | > 100 µM (inactive) | > 100 µM (inactive) | > 100 µM (inactive) |
| CCCCNC1CCC2(SCCS2)c2[nH]c3ccccc3c21 (stereo unspecified) | 37.7 µM (inactive) | 7.4 µM (inactive) | 56.9 µM (inactive) | 29.8 µM (inactive) | 37.2 µM (inactive) | 17.1 µM (inactive) | 5.14 µM (inactive) | > 54.1 µM (inactive) | 34.3 µM (inactive) | 28.4 µM (inactive) | 4.78 µM | 19.1 µM (inactive) |  |  | 49.8 µM (inactive) | 3.11 µM (inactive) | 13.7 µM (inactive) | 20.2 µM (inactive) | 2.56 µM (inactive) |
| O=C1C2=Cc3ccccc3CCN2c2ccc([N+](=O)[O-])cc21 | 81.5 µM (inactive) | > 100 µM (inactive) | 31.3 µM (inactive) | 64.6 µM (inactive) | 21.4 µM (inactive) | > 100 µM (inactive) | 21.9 µM (inactive) | > 100 µM (inactive) | > 100 µM (inactive) | 41.2 µM (inactive) | 58.3 µM | 96.2 µM (inactive) | > 100 µM (inactive) |  |  | 2.92 µM (inactive) | 82.6 µM (inactive) | 55.5 µM (inactive) |  |
| COc1ccc(C2(c3ccc(OC)cc3)OC(=O)c3cccc4cccc2c34)cc1 | 23.8 µM (inactive) | 3.71 µM (inactive) | 8.11 µM (inactive) | 9.51 µM (inactive) | 2.76 µM (inactive) | 3.78 µM (inactive) | 5.25 µM (inactive) | 4.85 µM (inactive) |  | > 100 µM (inactive) | 4.15 µM | > 100 µM (inactive) |  | 8 µM (inactive) | 6.46 µM (inactive) | 4.78 µM (inactive) | 3.48 µM (inactive) | 5.28 µM (inactive) | 2.24 µM (inactive) |
| Nc1nc(Cl)cc(NCC2(CO)CC(CCCCc3ccccc3)C2)n1 (stereo unspecified) | > 100 µM (inactive) | 29 µM (inactive) | 16.1 µM (inactive) | 70.6 µM (inactive) | > 100 µM (inactive) | 67.6 µM (inactive) | 3.86 µM (inactive) | > 100 µM (inactive) | > 100 µM (inactive) | 96.4 µM (inactive) | 34.8 µM | > 100 µM (inactive) | 89.1 µM (inactive) | > 100 µM (inactive) | > 100 µM (inactive) | 7.55 µM (inactive) | > 100 µM (inactive) | > 100 µM (inactive) |  |
| CN(N=O)C(=N)NC(=O)c1ccccc1 |  | 67.6 µM (inactive) | > 100 µM (inactive) | > 100 µM (inactive) | 61.2 µM (inactive) | > 100 µM (inactive) | 45.4 µM (inactive) | > 100 µM (inactive) |  | > 100 µM (inactive) | > 100 µM |  | > 100 µM (inactive) | > 100 µM (inactive) | > 100 µM (inactive) | 54.7 µM (inactive) | 62.1 µM (inactive) | 56.5 µM (inactive) | > 100 µM (inactive) |
| COc1cc(C2c3cc4c(cc3OC(N3CCOCC3)C2C)OCO4)cc(OC)c1O (stereo unspecified) | 13.7 µM (inactive) | 4.13 µM (inactive) | 8.91 µM (inactive) | 3.18 µM (inactive) | 36.2 µM (inactive) | 7.29 µM (inactive) | 3.18 µM (inactive) | 36.6 µM (inactive) | 12.9 µM (inactive) | 12.8 µM (inactive) | 2.87 µM | 29.7 µM (inactive) |  | 6.9 µM (inactive) | 5.69 µM (inactive) | 5.35 µM (inactive) | 5.66 µM (inactive) | 3.73 µM (inactive) | 9.04 µM (inactive) |
| CC1=CC(=O)/C(=C/n2c(=S)[nH]c3cc(C)ccc32)C(=O)O1 | > 100 µM (inactive) | > 100 µM (inactive) | > 100 µM (inactive) | > 100 µM (inactive) | > 100 µM (inactive) | > 100 µM (inactive) | > 100 µM (inactive) | 73.8 µM (inactive) | > 100 µM (inactive) | > 100 µM (inactive) | > 100 µM | > 100 µM (inactive) | > 100 µM (inactive) | > 100 µM (inactive) | > 100 µM (inactive) | > 100 µM (inactive) | > 100 µM (inactive) | > 100 µM (inactive) |  |
| COc1ccccc1C(=O)OCC1CCCN2CCCCC12 (stereo unspecified) | 29.7 µM (inactive) | 40.3 µM (inactive) | 25.8 µM (inactive) | 59.7 µM (inactive) | 81.7 µM (inactive) |  | 34.4 µM (inactive) | 83 µM (inactive) | 26.4 µM (inactive) | > 100 µM (inactive) | 36.6 µM | > 100 µM (inactive) |  | 54.3 µM (inactive) | > 100 µM (inactive) | 42.4 µM (inactive) | > 100 µM (inactive) | 31.7 µM (inactive) | 16.1 µM (inactive) |
| CCOc1ccc(/C=C/C(=O)c2sc(NNC(C)=O)nc2C)cc1 | > 100 µM (inactive) |  | > 100 µM (inactive) |  | 85.1 µM (inactive) |  | > 100 µM (inactive) |  | > 100 µM (inactive) | > 100 µM (inactive) | > 100 µM |  |  | > 100 µM (inactive) | > 100 µM (inactive) |  | > 100 µM (inactive) | > 100 µM (inactive) |  |
| COc1cc(/C=C/C(=O)CC(=O)/C=C/c2cc(C)c(O)c(OC)c2)cc(C)c1O | > 100 µM (inactive) | 58.3 µM (inactive) | > 100 µM (inactive) | > 100 µM (inactive) | > 100 µM (inactive) | > 100 µM (inactive) | > 100 µM (inactive) | > 100 µM (inactive) | > 100 µM (inactive) | < 0.01 µM (active) | > 100 µM | > 100 µM (inactive) |  | > 100 µM (inactive) | > 100 µM (inactive) | 52.8 µM (inactive) | > 100 µM (inactive) | > 100 µM (inactive) | > 100 µM (inactive) |

From ChEMBL document CHEMBL1201862, “PubChem BioAssay data set” (2004)
